# Measurements taken from paper PMC5748027, “Computer-aided design of multi-target ligands at A1R, A2AR and PDE10A, key proteins in neurodegenerative diseases” (Journal of Cheminformatics, 2017).
# Key:
# [1] = target: T1, A1 human adenosine receptor (A1R) (Homo sapiens, UniProt P30542); experiment: Radioligand binding competition assay, human A1 receptor in transfected CHO cells; conditions: for Ki: Cheng-Prusoff approximation; for inhibition at 0.1 µM: 0.1 µM compound, read-out: % displacement at 0.1 μM (A1R)
# T1 construct: expressed in transfected cells; host or cells: CHO
# T1 sequence (P30542 1-326): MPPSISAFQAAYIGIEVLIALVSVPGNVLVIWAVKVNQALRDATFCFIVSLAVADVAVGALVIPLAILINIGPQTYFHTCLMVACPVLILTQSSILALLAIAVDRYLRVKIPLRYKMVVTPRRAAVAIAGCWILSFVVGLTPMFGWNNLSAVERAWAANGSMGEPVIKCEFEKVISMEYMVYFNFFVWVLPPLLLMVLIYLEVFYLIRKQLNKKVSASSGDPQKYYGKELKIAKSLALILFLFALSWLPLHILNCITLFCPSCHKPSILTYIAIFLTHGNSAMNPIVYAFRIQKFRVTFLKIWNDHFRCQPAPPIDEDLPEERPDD
# Protocol: Pharmacological evaluation was performed in a radioligand binding competition assay, using A1, A2A, A2B, and A3 human receptors expressed in transfected CHO (A1), HeLa (A2A and A3), and HEK-293 (A2B) according to the procedure reported by Bosch et al. [78].
# human PDE7A = target: T2, human PDE7A (Homo sapiens, UniProt Q13946); experiment: Phosphodiesterase activity, AD293 cells transiently transfected with human PDE7A; assay type: biochemical; conditions: for inhibition at 10 µM: 10 µM compound, read-out: Percentage inhibition at 10µM (PDE7A)
# T2 construct: expressed in transfected cells; host or cells: AD293 (transient transfection)
# T2 sequence (Q13946 whole entry): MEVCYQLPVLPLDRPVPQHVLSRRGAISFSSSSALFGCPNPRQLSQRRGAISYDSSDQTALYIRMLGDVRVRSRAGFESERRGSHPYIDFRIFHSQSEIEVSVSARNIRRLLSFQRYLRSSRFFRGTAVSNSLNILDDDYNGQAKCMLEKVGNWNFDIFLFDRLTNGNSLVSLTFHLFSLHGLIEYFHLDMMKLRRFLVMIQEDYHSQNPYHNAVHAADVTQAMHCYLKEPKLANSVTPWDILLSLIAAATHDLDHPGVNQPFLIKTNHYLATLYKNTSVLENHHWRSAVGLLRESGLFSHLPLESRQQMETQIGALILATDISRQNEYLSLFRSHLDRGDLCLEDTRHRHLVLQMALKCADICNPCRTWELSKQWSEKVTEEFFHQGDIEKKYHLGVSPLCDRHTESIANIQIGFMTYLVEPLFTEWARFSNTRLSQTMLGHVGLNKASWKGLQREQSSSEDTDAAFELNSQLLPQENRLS
# Protocol: (§1) The activity measurements against the phosphodiesterases PDE7A, PDE7B, PDE9A and PDE10A were performed using AD293 cells that were transiently and separately transfected with human PDE7A, PDE7B, PDE9A, and PDE10A following the procedure described by Shipe et al..
# human PDE10A = target: T3, human PDE10A (Homo sapiens, UniProt Q9Y233); experiment: Phosphodiesterase activity, AD293 cells transiently transfected with human PDE10A; assay type: biochemical; conditions: for inhibition at 10 µM: read-out: % inhibition at 10 μM (PDE10A), 10 μM compound; for IC50: mean of 3 experiments in duplicate
# T3 construct: expressed in transfected cells; host or cells: AD293 (transient transfection)
# T3 sequence (Q9Y233 267-1055 limits assumed): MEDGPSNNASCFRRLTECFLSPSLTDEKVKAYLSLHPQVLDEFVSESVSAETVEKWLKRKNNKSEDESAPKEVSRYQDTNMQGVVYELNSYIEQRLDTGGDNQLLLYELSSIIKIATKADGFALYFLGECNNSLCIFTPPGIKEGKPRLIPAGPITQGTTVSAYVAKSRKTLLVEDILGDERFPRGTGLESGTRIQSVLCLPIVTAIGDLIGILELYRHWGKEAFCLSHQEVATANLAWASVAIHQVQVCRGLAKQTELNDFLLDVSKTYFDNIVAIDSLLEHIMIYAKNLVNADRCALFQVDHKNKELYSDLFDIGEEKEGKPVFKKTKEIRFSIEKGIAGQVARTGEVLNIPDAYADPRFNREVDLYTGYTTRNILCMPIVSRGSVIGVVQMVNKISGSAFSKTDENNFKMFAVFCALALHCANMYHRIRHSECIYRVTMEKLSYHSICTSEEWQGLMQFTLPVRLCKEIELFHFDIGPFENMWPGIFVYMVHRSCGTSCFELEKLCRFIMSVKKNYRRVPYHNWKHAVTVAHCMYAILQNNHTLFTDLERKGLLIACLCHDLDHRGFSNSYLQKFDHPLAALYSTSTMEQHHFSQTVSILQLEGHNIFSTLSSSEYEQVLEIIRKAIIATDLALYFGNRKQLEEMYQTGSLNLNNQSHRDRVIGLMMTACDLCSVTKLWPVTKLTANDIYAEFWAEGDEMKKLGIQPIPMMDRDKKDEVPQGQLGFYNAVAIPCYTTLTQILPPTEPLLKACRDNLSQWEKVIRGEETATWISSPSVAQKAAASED
# Protocol: (§2) Bioactivity testing was performed using A1 and A2A human adenosine receptors expressed in transfected CHO (A1) and HeLa (A2A) cells, as well as AD293 cells that were transiently transfected with human PDE10A. Table 1 includes the list of synthesized 4,6-substituted 2-amino-pyridin-3-carbonitriles, along with their Ki values against A1R, A2AR, and IC50 values against PDE10A.
# as §1
# A3 human receptor (A3R) = target: T4, A3 human receptor (A3R) (Homo sapiens, UniProt P0DMS8); experiment: Radioligand binding competition assay, human A3 receptor in transfected HeLa cells; conditions: 0.1 µM compound; read-out: percentage displacement at 0.1µM (A3R)
# T4 construct: expressed in transfected cells; host or cells: HeLa
# T4 sequence (P0DMS8 1-318): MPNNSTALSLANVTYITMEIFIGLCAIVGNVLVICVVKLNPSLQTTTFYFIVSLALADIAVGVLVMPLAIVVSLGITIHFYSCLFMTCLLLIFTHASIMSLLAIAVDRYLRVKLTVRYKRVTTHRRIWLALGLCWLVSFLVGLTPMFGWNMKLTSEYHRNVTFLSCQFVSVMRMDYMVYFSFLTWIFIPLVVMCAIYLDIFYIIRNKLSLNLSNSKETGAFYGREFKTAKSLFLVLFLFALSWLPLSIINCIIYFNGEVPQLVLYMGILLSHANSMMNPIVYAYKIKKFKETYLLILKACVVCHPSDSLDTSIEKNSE
# Protocol: (§3) Pharmacological evaluation was performed in a radioligand binding competition assay, using A1, A2A, A2B, and A3 human receptors expressed in transfected CHO (A1), HeLa (A2A and A3), and HEK-293 (A2B) according to the procedure reported by Bosch et al..
# [2] = target: T5, A2B human receptor (A2BR) (Homo sapiens, UniProt P29275); experiment: Radioligand binding competition assay, human A2B receptor in transfected HEK-293 cells; conditions: 0.1 µM compound; read-out: percentage displacement at 0.1µM (A2BR)
# T5 construct: expressed in transfected cells; host or cells: HEK-293
# T5 sequence (P29275 1-332): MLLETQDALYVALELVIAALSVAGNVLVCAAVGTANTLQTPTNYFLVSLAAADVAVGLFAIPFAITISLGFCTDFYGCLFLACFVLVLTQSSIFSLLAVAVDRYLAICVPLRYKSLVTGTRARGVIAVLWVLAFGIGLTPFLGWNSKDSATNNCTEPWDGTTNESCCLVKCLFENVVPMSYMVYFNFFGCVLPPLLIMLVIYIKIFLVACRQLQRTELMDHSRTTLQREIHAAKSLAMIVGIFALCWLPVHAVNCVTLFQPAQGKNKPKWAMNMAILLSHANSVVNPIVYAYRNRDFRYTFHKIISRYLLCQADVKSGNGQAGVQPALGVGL
# Protocol: as §3
# [3] = target: T6, A2A human adenosine receptor (A2AR) (Homo sapiens, UniProt P29274); experiment: Radioligand binding competition assay, human A2A receptor in transfected HeLa cells; conditions: for Ki: Cheng-Prusoff approximation; for % displacement at 0.1 μM (A2AR): 0.1 µM compound
# T6 construct: expressed in transfected cells; host or cells: HeLa
# T6 sequence (P29274 whole entry): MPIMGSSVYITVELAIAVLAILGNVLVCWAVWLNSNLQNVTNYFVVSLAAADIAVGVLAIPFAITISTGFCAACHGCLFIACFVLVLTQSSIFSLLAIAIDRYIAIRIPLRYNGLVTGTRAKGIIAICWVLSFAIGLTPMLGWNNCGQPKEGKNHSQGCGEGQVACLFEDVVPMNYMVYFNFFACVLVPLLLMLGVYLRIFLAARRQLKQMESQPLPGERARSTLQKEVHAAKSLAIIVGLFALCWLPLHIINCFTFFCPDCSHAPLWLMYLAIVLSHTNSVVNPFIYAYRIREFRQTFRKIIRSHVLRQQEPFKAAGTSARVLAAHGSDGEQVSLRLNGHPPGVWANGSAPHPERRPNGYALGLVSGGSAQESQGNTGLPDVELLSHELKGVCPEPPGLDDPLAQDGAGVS
# Protocol: as §2, §3
# human PDE9A = target: T7, human PDE9A (Homo sapiens, UniProt O76083); experiment: Phosphodiesterase activity, AD293 cells transiently transfected with human PDE9A; assay type: biochemical; conditions: 10 µM compound; read-out: Percentage inhibition at 10µM (PDE9A)
# T7 construct: expressed in transfected cells; host or cells: AD293 (transient transfection)
# T7 sequence (O76083 whole entry): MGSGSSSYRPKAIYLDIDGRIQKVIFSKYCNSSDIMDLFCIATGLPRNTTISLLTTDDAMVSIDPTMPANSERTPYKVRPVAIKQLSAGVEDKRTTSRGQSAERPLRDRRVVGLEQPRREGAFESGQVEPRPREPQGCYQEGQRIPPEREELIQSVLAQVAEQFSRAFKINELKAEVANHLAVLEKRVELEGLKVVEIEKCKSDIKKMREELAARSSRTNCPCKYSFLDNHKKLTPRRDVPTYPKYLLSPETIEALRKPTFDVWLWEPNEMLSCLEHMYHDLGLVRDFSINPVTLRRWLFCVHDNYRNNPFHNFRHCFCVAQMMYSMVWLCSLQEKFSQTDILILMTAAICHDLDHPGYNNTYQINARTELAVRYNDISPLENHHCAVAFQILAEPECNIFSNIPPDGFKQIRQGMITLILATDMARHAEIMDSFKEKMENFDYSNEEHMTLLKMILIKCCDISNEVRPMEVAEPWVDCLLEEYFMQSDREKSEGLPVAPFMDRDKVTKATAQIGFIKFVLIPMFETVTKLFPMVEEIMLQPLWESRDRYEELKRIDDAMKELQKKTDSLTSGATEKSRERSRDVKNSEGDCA
# Protocol: as §1
# human PDE7B = target: T8, human PDE7B (Homo sapiens, UniProt Q9NP56); experiment: Phosphodiesterase activity, AD293 cells transiently transfected with human PDE7B; assay type: biochemical; conditions: for inhibition at 10 µM: 10 µM compound, read-out: Percentage inhibition at 10µM (PDE7B)
# T8 construct: expressed in transfected cells; host or cells: AD293 (transient transfection)
# T8 sequence (Q9NP56 whole entry): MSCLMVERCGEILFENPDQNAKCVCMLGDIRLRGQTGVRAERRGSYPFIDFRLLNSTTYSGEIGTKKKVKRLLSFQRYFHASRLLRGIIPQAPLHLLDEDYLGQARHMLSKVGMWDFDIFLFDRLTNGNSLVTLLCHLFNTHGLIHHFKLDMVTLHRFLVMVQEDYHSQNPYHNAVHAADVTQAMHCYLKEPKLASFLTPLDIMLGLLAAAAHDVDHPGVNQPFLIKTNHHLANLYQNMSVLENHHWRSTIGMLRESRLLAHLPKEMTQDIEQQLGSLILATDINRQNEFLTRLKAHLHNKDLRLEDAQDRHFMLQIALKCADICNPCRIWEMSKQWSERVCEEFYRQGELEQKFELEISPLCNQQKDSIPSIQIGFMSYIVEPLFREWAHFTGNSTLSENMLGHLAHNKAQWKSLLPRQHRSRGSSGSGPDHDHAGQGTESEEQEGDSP
# Protocol: as §1
Compound,Ki [1],inhibition at 10 µM (human PDE7A),inhibition at 10 µM (human PDE10A),inhibition at 0.1 µM (A3 human receptor (A3R)),inhibition at 0.1 µM [2],Ki [3],inhibition at 10 µM (human PDE9A),inhibition at 10 µM (human PDE7B),melting point,inhibition at 0.1 µM [1],IC50 (human PDE10A),% displacement at 0.1 μM (A2AR) [3],IC50 (human PDE7A),IC50 (human PDE7B)
"N#Cc1c(-c2ccccc2F)cc(-c2ccccc2F)nc1N [Compound 18, 2-amino-4,6-bis(2-fluorophenyl)pyridine-3-carbonitrile]",0.078 ± 0.005 µM,25%,38%,1%,1%,0.948 ± 0.013 µM,0%,36%,180 to 181 °C,,,,,
"Cc1ccccc1-c1cc(C2CCCCC2)c(C#N)c(N)n1 [Compound 10, 2-amino-4-cyclohexyl-6-(2-methylphenyl)pyridine-3-carbonitrile]",,31%,,28%,1%,,9%,35%,120 to 121 °C,17%,3.7 ± 0.3 µM,18%,,
"N#Cc1c(C2CCCCC2)cc(-c2ccsc2)nc1N [Compound 12, 2-amino-4-cyclohexyl-6-(thiophen-3-yl)pyridine-3-carbonitrile]",,29%,,14%,2%,,3%,60%,145 to 146 °C,44%,0.9 ± 0.2 µM,60%,,
"N#Cc1c(-c2ccccc2)cc(-c2ccc(O)cc2)nc1N [Compound 2, 2-amino-6-(4-hydroxyphenyl)-4-phenylpyridine-3-carbonitrile]",0.142 ± 0.007 µM,47%,52%,2%,2%,,1%,39%,,,,38%,,
"COc1ccccc1-c1cc(-c2ccco2)nc(N)c1C#N [Compound 21, 2-amino-6-(furan-2-yl)-4-(2-methoxyphenyl)pyridine-3-carbonitrile]",,,,23%,2%,0.095 ± 0.004 µM,17%,30%,187 to 188 °C,38%,10 ± 0.6 µM,,15.1 µM,
"COc1ccc(-c2cc(-c3ccc(O)cc3)nc(N)c2C#N)cc1 [Compound 17, 2-amino-6-(4-hydroxyphenyl)-4-(4-methoxyphenyl)pyridine-3-carbonitrile]",,,65%,8%,1%,,7%,44%,,46%,,29%,3.5 µM,
"N#Cc1c(-c2ccc(O)cc2)cc(-c2ccc(O)cc2)nc1N [Compound 24, 2-amino-4,6-bis(4-hydroxyphenyl)pyridine-3-carbo-nitrile]",,47%,,1%,1%,,7%,38%,299 to 300 °C,19%,3.1 ± 0.4 µM,7%,,
"COc1ccc(-c2cc(-c3ccccc3F)nc(N)c2C#N)cc1 [Compound 14, 2-amino-6-(2-fluorophenyl)-4-(4-methoxyphenyl)pyridine-3-carbonitrile]",0.108 ± 0.006 µM,22%,10%,27%,1%,,7%,20%,,,,30%,,
"COc1ccc(-c2cc(-c3ccco3)nc(N)c2C#N)cc1 [Compound 16, 2-amino-6-(furan-2-yl)-4-(4-methoxyphenyl)pyridine-3-carbonitrile]",,,,21%,33%,,2%,30%,205 to 207 °C,,3.2 ± 0.4 µM,,3.4 µM,
"N#Cc1c(-c2ccccc2)cc(-c2ccc(F)cc2)nc1N [Compound 1, 2-amino-6-(4-fluorophenyl)-4-phenylpyridine-3-carbonitrile]",0.394 ± 0.012 µM,9%,22%,27%,2%,,1%,28%,,,,32%,,
"COc1ccc(-c2cc(-c3ccccc3)nc(N)c2C#N)c(OC)c1 [Compound 6, 2-amino-4-(2,4-dimethoxyphenyl)-6-phenylpyridine-3-carbonitrile]",,51%,,6%,1%,,1%,27%,,12%,5.7 ± 0.3 µM,1%,,
"N#Cc1c(-c2ccco2)cc(-c2ccsc2)nc1N [Compound 25, 2-amino-4-(furan-2-yl)-6-(thiophen-3-yl)pyridine-3-carbonitrile]",,48%,,2%,5%,0.055 ± 0.002 µM,14%,,,15%,5.1 ± 0.4 µM,,,4.7 µM
"COc1ccccc1-c1cc(-c2ccccc2C)nc(N)c1C#N [Compound 20, 2-amino-4-(2-methoxyphenyl)-6-(2-methylphenyl)pyridine-3-carbonitrile]",,31%,,6%,3%,,12%,23%,,12%,6.4 ± 0.4 µM,50%,,
"COc1ccc(-c2cc(-c3ccccc3C)nc(N)c2C#N)cc1 [Compound 15, 2-amino-4-(4-methoxyphenyl)-6-(2-methylphenyl)pyridine-3-carbonitrile]",,57%,,17%,4%,,16%,55%,,6%,1.5 ± 0.2 µM,32%,,
"COc1ccccc1-c1cc(-c2ccccc2)nc(N)c1C#N [Compound 5, 2-amino-4-(2-methoxyphenyl)-6-phenylpyridine-3-carbonitrile]",,24%,28%,26%,5%,0.543 ± 0.013 µM,3%,30%,,53%,,,,
"COc1ccccc1-c1cc(-c2ccc(O)cc2)nc(N)c1C#N [Compound 22, 2-amino-6-(4-hydroxyphenyl)-4-(2-methoxyphenyl)pyridine-3-carbonitrile]",,63%,,2%,1%,,9%,16%,,8%,5.6 ± 0.5 µM,1%,,
